Target: T1, Prolyl hydroxylase 3 (PHD3) (Homo sapiens, UniProt Q9H6Z9)
T1 construct: gene EGLN3; recombinant human PHD3 expressed in E. coli, ~45 kDa
Experiment: fluorescence-based 2OG consumption assay (OPD derivatization), double-reciprocal kinetics
Type: biochemical

T1 sequence (Q9H6Z9 whole entry): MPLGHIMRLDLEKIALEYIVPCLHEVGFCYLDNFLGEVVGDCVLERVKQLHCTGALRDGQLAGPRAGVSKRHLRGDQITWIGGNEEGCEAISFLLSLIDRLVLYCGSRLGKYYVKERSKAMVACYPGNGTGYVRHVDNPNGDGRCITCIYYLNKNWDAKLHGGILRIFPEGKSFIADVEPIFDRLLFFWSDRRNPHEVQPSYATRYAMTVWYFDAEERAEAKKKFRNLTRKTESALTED

Row | Ki [nM] | SMILES
1 | 1090 | O=C(Nc1ccccc1NC(=O)[C@H]1CCCN1)[C@H]1CCCN1 [PA1]
2 | 2380 | O=C(O)[C@H]1CCCN1C(=O)OCc1ccccc1 [PA2]

Reference: PMC3995910, “Effect of Proline Analogues on Activity of Human Prolyl Hydroxylase and the Regulation of HIF Signal Transduction Pathway” (PLoS ONE, 2014)
